Reference: paper PMC6917776, “Discovery of a chemical probe for PRDM9” (Nature Communications, 2019)
Values joined by “and” are separate entries in the source; they are usually repeats but may differ in a detail not shown here. Identical values can stand only once. Like-named read-outs stand apart in the source and are kept apart here.

What was measured:
PRDM7 = biological target: T1, PRDM7 (Homo sapiens, UniProt Q9NQW5); assay: PRDM7 methyltransferase activity assay (3H-SAM scintillation proximity assay); format: biochemical; conditions: for activity at 50 µM: 50 µM compound
T1 sequence (Q9NQW5 1-492): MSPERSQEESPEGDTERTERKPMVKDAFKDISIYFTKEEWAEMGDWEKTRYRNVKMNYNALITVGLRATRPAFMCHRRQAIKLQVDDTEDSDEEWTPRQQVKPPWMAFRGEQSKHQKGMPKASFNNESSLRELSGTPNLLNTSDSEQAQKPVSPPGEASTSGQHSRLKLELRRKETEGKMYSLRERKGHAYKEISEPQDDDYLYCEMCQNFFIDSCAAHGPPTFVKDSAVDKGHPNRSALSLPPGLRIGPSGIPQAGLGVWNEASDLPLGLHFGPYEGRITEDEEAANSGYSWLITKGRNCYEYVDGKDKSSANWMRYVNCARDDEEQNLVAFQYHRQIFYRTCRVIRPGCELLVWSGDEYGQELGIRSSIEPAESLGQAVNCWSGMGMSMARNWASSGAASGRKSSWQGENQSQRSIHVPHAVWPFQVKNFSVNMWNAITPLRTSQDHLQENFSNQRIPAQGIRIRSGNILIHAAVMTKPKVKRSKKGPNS
Method: Methyltransferase activity assays for PRDM9 (amino acids: 195–415) were performed by monitoring the incorporation of tritium-labeled methyl group from ^3H-SAM to H3 (1–25) peptide using scintillation proximity assay (SPA). The enzymatic reactions were performed at 23 °C with 30 min incubation in 20 mM Tris-HCl (pH 7.5), 5 mM DTT, 0.01% Triton X-100 and 1% DMSO containing 71 μM of SAM (5 μM of ^3H-SAM), 4 μM of biotinylated H3 (1–25) peptide and 5 nM of PRDM9. For PRDM7, reactions were performed at 23 °C with 90 min incubation in 20 mM BTP pH 9.0, 5 mM DTT, 0.01% Triton X-100 and 1% DMSO containing 900 μM of SAM (5 μM of ^3H-SAM), 4 μM of biotinylated H3 (1–25) peptide and 100 nM of enzyme. Compounds were titrated from 3 nM to 50 μM and from 200 nM to 200 μM for PRDM9 and PRDM7, respectively. To stop the reactions, 10 μL of 7.5 M guanidine hydrochloride was added to 10 μL of reaction mixture, followed by 60 μL of buffer (20 mM Tris, pH 8.0), mixed, and transferred to a 384-well streptavidin coated Flash-plate. After mixing, the mixtures in Flash-plate were incubated for 2 h, and the CPM counts were measured using TopCount plate reader. All enzymatic reactions were performed in triplicate, and IC50 values were determined by fitting the data to Four Parameter Logistic equation using the GraphPad Prism software.

[1] = test system: NanoLuc-tagged PRDM9 (residues 135–285); assay: NanoLuciferase thermal shift assay (NALTSA) in HEK293T cells; format: cell-based, human; conditions: for Normalized_Signal: Fig. 5a, independent replicates
Method: Cells treated with 0.1% DMSO alone were used as a control.
Shown is the mean ± SEM of three biological replicates. Boxes indicate the mean values. P-values calculated using an unpaired Welch’s two-tailed t-test, *p-value = 0.017. Source data are provided as a Source Data file.
NALTSA assays were performed as previously described. Briefly, HEK293T cells were plated in 6-well plates at a density of 1.5 × 10^5 cells/mL. The following day, cells were transfected with 2 µg of C-terminally NanoLuc®-tagged PRDM9 (residues 135–285) with X-tremeGene HP DNA Transfection Reagent (Roche). Cells were incubated for 24 h, trypsinized and resuspended at 1.5 × 10^5 cells/mL in 1x PBS supplemented with protease inhibitors. Cell suspensions were incubated at 37 °C with 10 μM compound or 0.1% DMSO alone for 1 h. Sixty microliters of cells was dispensed per well of a 96-well PCR plate followed by heating across a temperature gradient for 3 min on a Mastercycler® thermal cycler (Eppendorf). After heating, samples were transferred to a 96-well white plastic plate (Corning) and Glo® Substrate (Promega) was added to each well at 1:1000 final dilution. NanoLuciferase signal was read at 450 nm (filter: 450 nm/BP 80 nm) on a CLARIOstar microplate reader (Mandel).

## COc1cc(OC)cc(-c2noc(N3CCN(C)C4(CCN(c5ccnc(C)c5)CC4)C3)n2)c1 [MRK-740]
PRDM7; 0.195312 µM compound, 0.195312 µM
  PRDM7-Activity %, single experiments: 104.6% and 100.9%
PRDM7; 0.195312 µM compound, read-out: PRDM7-Activity %, Average (n=3)
  activity at 0.195312 µM: 103%
PRDM7; 0.195312 µM compound, read-out: PRDM7-Activity %, single experiments
  activity at 0.195312 µM: 104%
PRDM7; 0.390625 µM compound, 0.390625 µM
  PRDM7-Activity %, single experiments: 104.3% and 107.1%
PRDM7; 0.390625 µM compound, read-out: PRDM7-Activity %, Average (n=3)
  activity at 0.390625 µM: 105%
PRDM7; 0.390625 µM compound, read-out: PRDM7-Activity %, single experiments
  activity at 0.390625 µM: 103%
PRDM7; 0.78125 µM compound, 0.78125 µM
  PRDM7-Activity %, single experiments: 95.5% and 104.5%
PRDM7; 0.78125 µM compound, read-out: PRDM7-Activity %, Average (n=3)
  activity at 0.78125 µM: 99.4%
PRDM7; 0.78125 µM compound, read-out: PRDM7-Activity %, single experiments
  activity at 0.78125 µM: 98.3%
PRDM7; 1.5625 µM compound, 1.5625 µM
  PRDM7-Activity %, single experiments: 97.86% and 90.81%
PRDM7; 1.5625 µM compound, read-out: PRDM7-Activity %, Average (n=3)
  activity at 1.5625 µM: 94.9%
PRDM7; 1.5625 µM compound, read-out: PRDM7-Activity %, single experiments
  activity at 1.5625 µM: 96.1%
PRDM7; 3.125 µM compound, 3.125 µM
  PRDM7-Activity %, single experiments: 99.32% and 89.67%
PRDM7; 3.125 µM compound, read-out: PRDM7-Activity %, Average (n=3)
  activity at 3.125 µM: 95.4%
PRDM7; 3.125 µM compound, read-out: PRDM7-Activity %, single experiments
  activity at 3.125 µM: 97.1%
PRDM7; 6.25 µM compound, 6.25 µM
  PRDM7-Activity %, single experiments: 81.54% and 82.05%
PRDM7; 6.25 µM compound, read-out: PRDM7-Activity %, Average (n=3)
  activity at 6.25 µM: 81.6%
PRDM7; 6.25 µM compound, read-out: PRDM7-Activity %, single experiments
  activity at 6.25 µM: 81.2%
PRDM7; 12.5 µM compound, 12.5 µM
  PRDM7-Activity %, single experiments: 70.89% and 77.38%
PRDM7; 12.5 µM compound, read-out: PRDM7-Activity %, Average (n=3)
  activity at 12.5 µM: 74.1%
PRDM7; 12.5 µM compound, read-out: PRDM7-Activity %, single experiments
  activity at 12.5 µM: 74%
PRDM7; 25 µM compound, 25 µM
  PRDM7-Activity %, single experiments: 64.86% and 73.52%
PRDM7; 25 µM compound, read-out: PRDM7-Activity %, Average (n=3)
  activity at 25 µM: 69.3%
PRDM7; 25 µM compound, read-out: PRDM7-Activity %, single experiments
  activity at 25 µM: 69.4%
PRDM7; read-out: PRDM7-Activity %, Average (n=3)
  activity at 50 µM: 46.3%
PRDM7; read-out: PRDM7-Activity %, single experiments
  activity at 50 µM: 47.1%
PRDM7; 100 µM compound, 100 µM
  PRDM7-Activity %, single experiments: 28% and 33.38%
PRDM7; 100 µM compound, read-out: PRDM7-Activity %, Average (n=3)
  activity at 100 µM: 30%
PRDM7; 100 µM compound, read-out: PRDM7-Activity %, single experiments
  activity at 100 µM: 28.6%
PRDM7; 200 µM compound, 200 µM
  PRDM7-Activity %, single experiments: 12.96% and 18.48%
PRDM7; 200 µM compound, read-out: PRDM7-Activity %, Average (n=3)
  activity at 200 µM: 15.8%
PRDM7; 200 µM compound, read-out: PRDM7-Activity %, single experiments
  activity at 200 µM: 16.1%
PRDM7; biotinylated H3 (1–25) peptide
  IC50: 45 ± 7 µM
[1]; 10 µM compound, 0.1% DMSO, 1 h, DMSO control Tm 52 ± 0.3 °C
  Tm of PRDM9 in cells (NALTSA): 54 ± 0.2 °C
[1]; 10 µM compound, 1 h, versus DMSO
  ∆Tm of PRDM9 in cells (NALTSA): 2 °C
[1]; Fig. 5b, replicates
  ∆Tm (°C): 2.141 °C and 1.141 °C and 2.73 °C
[1]; Temperature 41.9 °C
  Normalized_Signal: 1
[1]; Temperature 42.4 °C
  Normalized_Signal: 1.082 and 0.9671 and 1.026
[1]; Temperature 43.6 °C
  Normalized_Signal: 1.044 and 1.056 and 1.097
[1]; Temperature 45.5 °C
  Normalized_Signal: 1.058 and 1.067 and 0.973
[1]; Temperature 47.8 °C
  Normalized_Signal: 1.041 and 0.9815 and 0.9273
[1]; Temperature 50.4 °C
  Normalized_Signal: 0.9323 and 0.8369 and 0.6881
[1]; Temperature 53.1 °C
  Normalized_Signal: 0.6552 and 0.5708 and 0.5431
[1]; Temperature 55.8 °C
  Normalized_Signal: 0.4561 and 0.4452 and 0.3801
[1]; Temperature 58.1 °C
  Normalized_Signal: 0.3081 and 0.2709 and 0.2289
[1]; Temperature 60.1 °C
  Normalized_Signal: 0.1968 and 0.1844 and 0.1466
[1]; Temperature 61.5 °C
  Normalized_Signal: 0.1518 and 0.1586 and 0.1205
[1]; Temperature 62.1 °C
  Normalized_Signal: 0.1417 and 0.1648 and 0.1053
